In patent US20170285044A1, “METHODS FOR PREDICTING AND IMPROVING THE SURVIVAL OF GASTRIC CANCER PATIENTS” (Pierian Holdings, Inc., priority 2011, published 2017):

What was measured:
[1] = tested on: unselected gastric cancer patients; settings: monotherapy; Jhawer et al., 2008; cited from earlier work
[2] = tested on: NCI-87 cells; format: cell-based, human; settings: without altering total HER2 levels, FIG. 12
Experimental: (§1) Multiple Drug Effect Analysis: ˜1 X10^4 cells were plated in 24-well plate and grown in appropriate growth media. Lapatinib, cMET inhibitor or both agents (combo) were added at 1 μM concentration for 4 hrs and lysed for subsequent pathway profiling.
(§2) Immuno-microarray slides were rinsed 2× with TB ST (50 mM Tris/150 mM NaCl/0.1% Tween-20, pH 7.2-7.4), blocked with 80 μL Whatman Blocking Buffer lhr at RT, then washed 2× with TBST. Serially diluted lysate controls in 80 μL dilution buffer (2% BSA/0.1% TritonX-100/TBS, pH 7.2-7.4) and samples were added to designated sub-arrays on slides, then incubated 1 hour at RT. Slides were washed 4× (3 min. each), and detector Abs were added in 80 μL of reaction buffer and incubated for 2 hours at RT. After washing slides with TB ST to remove unbound detector Abs, 80 μL of biotin-tyramide solution (5 μg/m1 in 50 mM glucose/PBS) prepared from 400 μg/mL in ethanol solution (Perkin-Elmer Life Science) was added and incubated 15 min in darkness. Glucose-oxidase (GO)/HRP-mediated tyramide signal amplification process was terminated by washing with TBST 4×, 3 min each. Local deposition of biotin-tyramide was detected by incubation with streptavidin (SA)-Alexa647 (Invitrogen) at 0.5 μg/mL in 2% BSA/0.1% Triton/TBS for 40 min. Upon completion of incubation, slides were washed 4× with TBST, dried and kept in darkness until imaged via microarray scanner. […]

[3] = tested on: MET-amplified SNU484 cells; format: cell-based, human; settings: FIG. 12
Experimental: as §1, §2

In the case of `COc1cc2c(Oc3ccc(NC(=O)C4(C(=O)Nc5ccc(F)cc5)CC4)cc3F)ccnc2cc1OCCCN1CCOCC1` [foretinib], the objective response [1] is listed as “failed to demonstrate an objective response”.
With `CS(=O)(=O)CCNCc1ccc(-c2ccc3ncnc(Nc4ccc(OCc5cccc(F)c5)c(Cl)c4)c3c2)o1` [lapatinib] the HER2 activation [2] was “abolished” and the HER2 activation [3] was “unable to do so”.
